Measured values reported in patent US20260035452A1 (THE UNIVERSITY OF BIRMINGHAM, priority 2022, published 2026).
No end group written: not given here.

System: hPBMC on cytokine-stimulated HDBEC monolayers
Experiment: Human PBMC static adhesion / transendothelial migration assay
Format: cell-based
Details: co-treatment plus TNF-α
Procedure: FIG. 10: Human dermal blood endothelial cells (HDBEC) were treated with: IL-17 vehicle (Ctrl), IL-17 or FM-0410 (100 ng/ml), alone or in combination with TNF-α (100 U/ml) for 24 h. Cells were washed, gated in their totality and singlet before the identification of IL-17Rs (RA and RC) (A, B), ICAM (C) and VCAM (D) expression. Histogram values (expressed as MIF) indicate the total positive cells (A-D). In (E) are shown phase-contrast micrographs of confluent monolayers of untreated or treated (as reported before) HDBEC. Total adhesion (expressed as INT/mm^2, F) and % of transmigration (G) are calculated with Image Pro programme (DataCell, Finchampstead). Inflammatory supernatants from all experimental conditions were assayed by Elisa for IL-6 (H) expressed in pg/ml. Data were presented as means±S.D. of n=3 healthy donors. […]
Human PBMC transendothelial migration assay: Prior to beginning the assay, HDBEC monolayers were washed with 37° C. medium 199 (Thermo Fisher Scientific) supplemented with 0.15% w/v BSA (MilliporeSigma) to remove any residual cytokines. hPBMC (1×10^6) were co-cultured with cytokine-stimulated HDBEC monolayers at 37° C. for 20 min. […] Total hPBMC adhesion and mean percentage transmigration were calculated for each well.

Ac-LEKILVSVGATAVTPIVHHVAC [FM-0410]
total number of adhered hPBMC: significant increase
transmigrated hPBMC: significant increase
